In ChEMBL document CHEMBL5360555, “Structure-based discovery of novel α-aminoketone derivatives as dual p53-MDM2/MDMX inhibitors for the treatment of cancer” (Eur J Med Chem, 2023):
Activity calls are given as the source filed them. No cut-off for these calls is given here.

What was measured:
SH-SY5Y [1] = experiment: Reactivation of p53 pathway in human SH-SY5Y cells assessed as increase in cleaved caspase 3level treated at 0.6 to 2.4 uM for 48 hrs measured by Western blotting analysis; format: cell-based; details: dose 0.6-2.4 µM
[2] = Cytotoxicity against human BEAS-2B cells incubated for 72 hrs by CCK-8 assay; format: toxicity, cell-based
Protein Mdm4 = biological target: T1, Protein Mdm4 (Homo sapiens, UniProt O15151); experiment: Binding affinity to MDMX (1 to 118 residues) (unknown origin) assessed as inhibition constant incubated for 1 hr measured by fluorescence polarization assay
T1 sequence (O15151 whole entry): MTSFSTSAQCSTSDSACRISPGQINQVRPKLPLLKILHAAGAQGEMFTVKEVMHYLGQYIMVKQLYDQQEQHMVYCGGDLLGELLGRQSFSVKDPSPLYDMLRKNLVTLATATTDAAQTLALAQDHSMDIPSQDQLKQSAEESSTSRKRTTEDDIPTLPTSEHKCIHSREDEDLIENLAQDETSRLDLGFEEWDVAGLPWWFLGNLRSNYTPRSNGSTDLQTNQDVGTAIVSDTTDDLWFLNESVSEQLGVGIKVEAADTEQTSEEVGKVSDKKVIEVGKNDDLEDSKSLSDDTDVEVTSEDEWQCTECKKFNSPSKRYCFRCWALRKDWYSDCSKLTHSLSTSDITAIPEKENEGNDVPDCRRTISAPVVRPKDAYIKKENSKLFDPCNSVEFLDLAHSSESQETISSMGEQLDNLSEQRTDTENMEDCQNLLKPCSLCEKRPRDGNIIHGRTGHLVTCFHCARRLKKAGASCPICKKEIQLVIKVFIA

SH-SY5Y [3] = experiment: Antiproliferative activity against human SH-SY5Y cells overexpressing MDMX assessed as cell growth inhibition incubated for 72 hrs by CCK-8 assay; format: functional, cell-based
SH-SY5Y [4] = experiment: Reactivation of p53 pathway in human SH-SY5Y cells assessed as increase in p21 level treated at 0.6 to 2.4 uM for 48 hrs measured by Western blotting analysis; format: cell-based; details: dose 0.6-2.4 µM
HCT-116 [5] = experiment: Inhibition of colony formation in human HCT-116 cells incubated at 0.6 uM for 8 to 15 days measured by crystal violet staining based microscopic analysis; format: functional, cell-based; details: time 8-15 day
[6] = biological target: Cellular tumor antigen p53 (Homo sapiens) (UniProt P04637); experiment: Reactivation of p53 pathway in human HCT-116 cells assessed as increase in MDMX level treated at 0.6 to 2.4 uM for 48 hrs measured by Western blotting analysis; format: cell-based; details: dose 0.6-2.4 µM
Cellular tumor antigen p53 (Homo sapiens), sequence (P04637 whole entry, looked up): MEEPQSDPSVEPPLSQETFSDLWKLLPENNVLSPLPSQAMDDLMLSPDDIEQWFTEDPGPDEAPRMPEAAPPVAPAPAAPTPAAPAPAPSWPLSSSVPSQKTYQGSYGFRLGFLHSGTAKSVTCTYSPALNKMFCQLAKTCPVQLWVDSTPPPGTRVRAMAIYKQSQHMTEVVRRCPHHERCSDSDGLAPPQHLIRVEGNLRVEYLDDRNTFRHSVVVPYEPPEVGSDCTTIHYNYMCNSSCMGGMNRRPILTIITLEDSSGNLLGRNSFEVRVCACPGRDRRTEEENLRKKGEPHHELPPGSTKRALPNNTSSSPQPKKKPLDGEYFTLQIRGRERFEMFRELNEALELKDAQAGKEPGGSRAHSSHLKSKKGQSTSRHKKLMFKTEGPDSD

HCT-116 [7] = experiment: Antiproliferative activity against human HCT-116 cells overexpressing MDM2 assessed as cell growth inhibition incubated for 72 hrs by CCK-8 assay; format: functional, cell-based; details: HCT-116, 72 h
HCT-116 [8] = experiment: Reactivation of p53 pathway in human HCT-116 cells assessed as increase in cleaved caspase 3 level treated at 0.6 to 2.4 uM for 48 hrs measured by Western blotting analysis; format: cell-based; details: dose 0.6-2.4 µM
HCT-116 [9] = experiment: Inhibition of cell invasion in human HCT-116 cells measured using transwell chamber by crystal violet staining based microscopic analysis; format: functional; details: dose 0.2-0.6 µM
HCT-116 [10] = experiment: Induction of apoptosis in human HCT-116 cells assessed as apoptotic cells at 0.6 uM for 48 hrs measured by Annexin V-PI based flow cytometric analysis relative to control; format: functional
HCT-116 [11] = experiment: Induction of cell cycle arrest in human HCT-116 cells assessed as decrease in accumulation of cells at G2 phase incubated at 0.6 to 2.4 uM for 48 hrs by measured by flow cytometric analysis; format: functional, cell-based; details: dose 0.6-2.4 µM
SH-SY5Y [12] = experiment: Reactivation of p53 pathway in human SH-SY5Y cells assessed as increase in MDMX level treated at 0.6 to 2.4 uM for 48 hrs measured by Western blotting analysis; format: cell-based; details: dose 0.6-2.4 µM
SH-SY5Y [13] = experiment: Reactivation of p53 pathway in human SH-SY5Y cells assessed as increase in MDM2 level treated at 0.6 to 2.4 uM for 48 hrs measured by Western blotting analysis; format: cell-based; details: dose 0.6-2.4 µM
HCT-116 [14] = experiment: Induction of apoptosis in human HCT-116 cells assessed as apoptotic cells at 2.4 uM for 48 hrs measured by Annexin V-PI based flow cytometric analysis relative to control; format: functional
HCT-116 [15] = experiment: Induction of cell cycle arrest in human HCT-116 cells assessed as increase in accumulation of cells at G1 phase incubated at 0.6 to 2.4 uM for 48 hrs by measured by flow cytometric analysis; format: functional, cell-based; details: dose 0.6-2.4 µM
HCT-116 [16] = experiment: Reactivation of p53 pathway in human HCT-116 cells assessed as increase in p53 level treated at 0.6 to 2.4 uM for 48 hrs measured by Western blotting analysis; format: cell-based; details: dose 0.6-2.4 µM
SH-SY5Y [17] = experiment: Induction of cell cycle arrest in human SH-SY5Y cells assessed as increase in accumulation of cells at G1 phase incubated at 0.6 to 2.4 uM for 48 hrs by measured by flow cytometric analysis; format: functional, cell-based; details: dose 0.6-2.4 µM
[18] = biological target: Cellular tumor antigen p53 (Homo sapiens) (UniProt P04637); experiment: Reactivation of p53 pathway in human HCT-116 cells assessed as increase in p21 level treated at 0.6 to 2.4 uM for 48 hrs measured by Western blotting analysis; format: cell-based; details: dose 0.6-2.4 µM
SJSA-1 = experiment: Antiproliferative activity against human SJSA-1 cells overexpressing MDM2 assessed as cell growth inhibition incubated for 72 hrs by CCK-8 assay; format: functional, cell-based; details: SJSA-1, 72 h
[19] = Antiproliferative activity against human HCT116-p53-null cells overexpressing MDMX assessed as cell growth inhibition incubated for 72 hrs by CCK-8 assay; format: functional, cell-based
SH-SY5Y [20] = experiment: Inhibition of colony formation in human SH-SY5Y cells incubated at 0.6 uM for 8 to 15 days measured by crystal violet staining based microscopic analysis; format: functional, cell-based; details: time 8-15 day
SH-SY5Y [21] = experiment: Induction of apoptosis in human SH-SY5Y cells assessed as apoptotic cells at 2.4 uM for 48 hrs measured by Annexin V-PI based flow cytometric analysis relative to control; format: functional
[22] = Cytotoxicity against human LO2 cells incubated for 72 hrs by CCK-8 assay; format: toxicity, cell-based, L02
SH-SY5Y [23] = experiment: Inhibition of cell invasion in human SH-SY5Y cells measured using transwell chamber by crystal violet staining based microscopic analysis; format: functional; details: dose 0.2-0.6 µM
SH-SY5Y [24] = experiment: Induction of apoptosis in human SH-SY5Y cells assessed as apoptotic cells at 0.6 uM for 48 hrs measured by Annexin V-PI based flow cytometric analysis relative to control; format: functional
[25] = biological target: Tumour suppressor p53/oncoprotein Mdm2 (Homo sapiens) (UniProt P04637+Q00987); experiment: Inhibition of protein binding in p53/MDM2 in human HCT116 cells assessed as disruption of protein-protein interaction measured at 1.2 uM for 48 hrs by co-immunoprecipitation based Western blotting analysis; format: cell-based; details: HCT-116
Tumour suppressor p53/oncoprotein Mdm2 (Homo sapiens), sequence (P04637 whole entry, looked up, the tested form may be a part): as the sequence (P04637 whole entry, looked up) above
Tumour suppressor p53/oncoprotein Mdm2 (Homo sapiens), sequence (Q00987 whole entry, looked up, the tested form may be a part): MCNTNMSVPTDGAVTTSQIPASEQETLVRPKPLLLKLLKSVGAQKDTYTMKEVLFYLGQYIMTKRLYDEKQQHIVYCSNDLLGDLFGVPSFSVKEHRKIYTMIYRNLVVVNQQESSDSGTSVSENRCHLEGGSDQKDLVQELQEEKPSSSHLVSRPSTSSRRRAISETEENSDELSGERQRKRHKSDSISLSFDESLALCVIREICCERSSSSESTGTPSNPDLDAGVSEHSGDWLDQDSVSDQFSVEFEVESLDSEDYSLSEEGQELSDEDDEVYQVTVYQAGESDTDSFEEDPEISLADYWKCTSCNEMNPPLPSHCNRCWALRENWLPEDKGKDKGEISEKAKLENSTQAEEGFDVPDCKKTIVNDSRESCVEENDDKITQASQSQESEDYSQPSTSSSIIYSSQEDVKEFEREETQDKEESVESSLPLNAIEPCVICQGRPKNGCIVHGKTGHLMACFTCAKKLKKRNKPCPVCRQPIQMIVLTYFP

[26] = biological target: E3 ubiquitin-protein ligase Mdm2 (Homo sapiens, UniProt Q00987); experiment: Binding affinity to MDM2 (1 to 118 residues) (unknown origin) assessed as inhibition constant incubated for 1 hr measured by fluorescence polarization assay
E3 ubiquitin-protein ligase Mdm2, sequence (Q00987 whole entry, the tested form may be a part): as the sequence (Q00987 whole entry, looked up, the tested form may be a part) above

SH-SY5Y [27] = experiment: Induction of cell cycle arrest in human SH-SY5Y cells assessed as decrease in accumulation of cells at G2 phase incubated at 0.6 to 2.4 uM for 48 hrs by measured by flow cytometric analysis; format: functional, cell-based; details: dose 0.6-2.4 µM
SH-SY5Y [28] = experiment: Reactivation of p53 pathway in human SH-SY5Y cells assessed as increase in p53 level treated at 0.6 to 2.4 uM for 48 hrs measured by Western blotting analysis; format: cell-based; details: dose 0.6-2.4 µM
HCT-116 [29] = experiment: Inhibition of cell migration in human HCT-116 cells measured using transwell chamber by crystal violet staining based microscopic analysis; format: functional; details: dose 0.2-0.6 µM
[30] = biological target: Cellular tumor antigen p53 (Homo sapiens) (UniProt P04637); experiment: Reactivation of p53 pathway in human HCT-116 cells assessed as increase in MDM2 level treated at 0.6 to 2.4 uM for 48 hrs measured by Western blotting analysis; format: cell-based; details: dose 0.6-2.4 µM
SH-SY5Y [31] = experiment: Inhibition of cell migration in human SH-SY5Y cells measured using transwell chamber by crystal violet staining based microscopic analysis; format: functional; details: dose 0.2-0.6 µM

Q: With `O=C(c1ccc(Cl)cc1)C(c1ccc(F)cc1Cl)N(C(=O)CCC(=O)N1CCNCC1)c1ccc(Cl)cc1` (stereo not drawn) as the compound, how does the Activity (SH-SY5Y [1]) read?
A: The Activity was “Active”.

Q: What about the IC50 at 72 h [2] of the same compound?
A: Its IC50 at 72 h is 18 µM.

Q: And the Ki (Protein Mdm4)?
A: Its Ki is 2.45 µM.

Q: And the IC50 (SH-SY5Y [3])?
A: The IC50 was 0.54 µM.

Q: What about the Activity (SH-SY5Y [4]) of the same compound?
A: The Activity was “Active”.

Q: What about the inhibition (HCT-116 [5]) of the same compound?
A: Its inhibition is “Active”.

Q: And the Activity [6]?
A: The Activity was “Active”.

Q: And the IC50 (HCT-116 [7])?
A: Its IC50 is 0.68 µM.

Q: What about the Activity (HCT-116 [8]) of the same compound?
A: The Activity was “Active”.

Q: What about the inhibition (HCT-116 [9]) of the same compound?
A: The inhibition was “Dose-Dependent Effect”.

Q: What about the Activity (HCT-116 [10]) of the same compound?
A: Its Activity is 13.63%.

Q: What about the Activity (HCT-116 [11]) of the same compound?
A: The Activity was “Active”.

Q: And the Activity (SH-SY5Y [12])?
A: Its Activity is “Active”.

Q: What about the Activity (SH-SY5Y [13]) of the same compound?
A: The Activity was “Active”.

Q: And the Activity (HCT-116 [14])?
A: Its Activity is 37.6%.

Q: What about the Activity (HCT-116 [15]) of the same compound?
A: Its Activity is “Active”.

Q: What about the Activity (HCT-116 [16]) of the same compound?
A: Its Activity is “Active”.

Q: And the Activity (SH-SY5Y [17])?
A: The Activity was “Active”.

Q: What about the Activity [18] of the same compound?
A: The Activity was “Active”.

Q: What about the IC50 (SJSA-1) of the same compound?
A: The IC50 was 0.58 µM.

Q: What about the IC50 [19] of the same compound?
A: Its IC50 is 14 µM.

Q: What about the inhibition (SH-SY5Y [20]) of the same compound?
A: The inhibition was “Active”.

Q: What about the Activity (SH-SY5Y [21]) of the same compound?
A: The Activity was 40.8%.

Q: What about the IC50 at 72 h [22] of the same compound?
A: The IC50 at 72 h was 15.9 µM.

Q: And the inhibition (SH-SY5Y [23])?
A: Its inhibition is “Dose-Dependent Effect”.

Q: And the Activity (SH-SY5Y [24])?
A: The Activity was 15.69%.

Q: What about the inhibition [25] of the same compound?
A: The inhibition was “Active”.

Q: And the Ki [26]?
A: Its Ki is 0.23 µM.

Q: What about the Activity (SH-SY5Y [27]) of the same compound?
A: The Activity was “Active”.

Q: What about the Activity (SH-SY5Y [28]) of the same compound?
A: The Activity was “Active”.

Q: And the inhibition (HCT-116 [29])?
A: Its inhibition is “Dose-Dependent Effect”.

Q: And the Activity [30]?
A: Its Activity is “Active”.

Q: And the inhibition (SH-SY5Y [31])?
A: The inhibition was “Dose-Dependent Effect”.
